In patent US20120202744A1, “DUAL ANTAGONISM OF ENDOTHELIN TYPE A AND BRADYKININ B1 RECEPTORS FOR TREATING PAIN AND PREVENTING CARTILAGE DEGRADATION” (priority 2011, published 2012):
Non-standard residues stand in square brackets, D forms with d. Residues, ends and D or L forms follow the SMILES beside them.

Legend:
bradykinin receptor B2 = bradykinin receptor B2 (Homo sapiens, UniProt P30411); details: patients with painful knee osteoarthritis, intra-articular; cited from earlier work
[1] = test system: articular cartilage of ACLT rat knee; experiment: Micro-magnetic resonance imaging of knee, cartilage mean T2; format: in vivo; details: ACLT rats, four weeks post-operatively; statistical significance between groups not achieved
Source text: (§1) At four or eight weeks post-surgery, animals were sacrificed by cardiac puncture under deep isoflurane anaesthesia. The right knee was dissected, and 40-mm-long samples were cut and stored in phosphate-buffered saline until scanned by digital micro-X-ray (DX) and/or micro-magnetic resonance (MR) imaging. Samples were dissected the same day as the radiological scans.
A subset of animals were sacrificed four weeks post-operatively and their right knees were imaged by micro-MR. Imaging was performed using a Bruker PharmaScan™ (Ettlingen, Germany) 7 Tesla MR scanner at the McGill University Small Animal Imaging Lab (Montreal, QC). Knee samples were placed in a custom-made support inside a 15-mL centrifuge tube, which was then filled with the MR-inert buffer FC-770™ (3M Fluorinert™ Electronic Liquid). Samples were introduced into a 1H mouse brain radio frequency (RF) coil (inner diameter 22 mm), and centred in the magnet. The RF coil was tuned and matched to the sample, and the magnet was then shimmed. The system was controlled via Bruker ParaVision™ software (version 5.0). […]
After acquisition, images were analyzed using OsiriX software (version 3.7.1). […] As well, images were analyzed for signs of cartilage decay, indicated by lower signal intensity of the articular surfaces. […]

[2] = test system: rat anterior cruciate ligament transection (ACLT) model of osteoarthritis; experiment: Digital micro-X-ray (DX) OA radiological scoring of knee joints; format: in vivo; details: ACLT rats; for Mean radiological score: DX views, maximum possible score nine; for radiological indices of disease progression (DX) versus saline-treated controls: 0.0020≦P≦0.0214
Source text: as §1
All knee samples were X-rayed using a Faxitron MX-20™ specimen X-ray system (Faxitron X-Ray Corporation, Lincolnshire, Ill.). Anteroposterior and lateral views were acquired at 5× magnification (10×10 μm pixel size) using a dose of 26 kV for 6 seconds. Images were analyzed using OsiriX™ software (version 3.7.1) [Rosset et al. OsiriX: an open-source software for navigating in multidimensional DICOM images. Journal of digital imaging (2004) 17(3): 205-16]. Radiological evidence of joint degradation, such as joint space narrowing and osteophyte formation, was evaluated. Radiological evidence of joint degradation was scored by two blinded examiners using an OA radiological score modified from Clark et al. [Clark R L, Cuttino JT Jr, Anderle S K, Cromartie W J, Schwab J H: Radiologic analysis of arthritis in rats after systemic injection of streptococcal cell walls. Arthritis Rheum 1979, 22:25-35.] and Esser et al. [Esser R E, Hildebrand A R, Angelo R A, Watts L M, Murphey M D, Baugh L E: Measurement of radiographic changes in adjuvant-induced arthritis in rats by quantitative image analysis. Arthritis Rheum 1995, 38:129-38.]. Bone demineralization, subchondral bone erosion, and heterotopic ossification were all scored on a scale from zero (normal) to three (marked degenerative changes). Total scores were calculated by summing the individual scores for each index, with a maximum possible score of nine.
OA radiological scores were statistically analyzed by one-way ANOVA, with total scores taken as the dependent variable and treatment group as the independent variable. Pairwise post-hoc testing with Holm correction was used to establish significance in between treatment groups. P-values less than 0.05 were considered statistically significant. Analyses were conducted using R (version 2.11.0) [R Development Core Team: R: A Language and Environment for Statistical Computing. Vienna, Austria: R Foundation for Statistical Computing 2010.].

[3] = test system: rat anterior cruciate ligament transection (ACLT) model of osteoarthritis; experiment: Cartilage and bone histomorphology (Safranin O/Fast Green) with OARSI histopathology scoring; format: in vivo; details: ACLT rats, eight weeks post-operatively, maximum value 24
Protocol: After radiological examination, knee samples were fixed in 10% neutral buffered formalin for two weeks, decalcified with RDO Rapid Decalcifier™ (Apex Engineering Products, Aurora, Ill.) for three days, circulated, and embedded in paraffin. Five-micron sagittal sections were acquired from the middle of the knee joint. Histomorphological staining was performed as previously described [Rosenberg L: Chemical basis for the histological use of safranin O in the study of articular cartilage. J Bone Joint Surg Am 1971, 53:69-82]: slides were deparrafinized, rehydrated, stained with Safranin O (which colours proteoglycans red) and Fast Green FCF (which colours collagens green), counterstained with hematoxylin, dehydrated, cleared, and mounted in Permount™. […]
Four slides from each condition were scored by two blinded examiners using the Osteoarthritis Research Society International (OARSI) histopathology assessment system [Pritzker K P H, Gay S, Jimenez S A, Ostergaard K, Pelletier J P, Revell P A, Salter D, van den Berg W B: Osteoarthritis cartilage histopathology: grading and staging. […]
OARSI scores were statistically analyzed by one-way ANOVA, with total scores taken as the dependent variable and treatment group as the independent variable. […]

COX-2 = COX-2 immunohistochemistry on articular cartilage of surgically induced OA; format: in vivo, rat; details: surgery-induced OA rats
Source text: FIGS. 11A-11D are photomicrographs depicting the effect of BQ-123+R-954 dual inhibition. […] Tissues were obtained from surgery induced OA in a rat model Top panel represent COX-2 immunodetection on tissues from non-treated lesioned animals (FIG. 11A); BQ-123 treatment (FIG. 11B); R-954 treatment (FIG. 11C); BQ-123+R-954 dual treatment (FIG. 11D). Specific immune staining for COX-2 protein is observed as a darker color. Surgery, pharmacological treatment, and tissue collection and processing were performed as described in Kaufman et al., Arthritis Research and Therapy, 2011, 13:R76. FIG. 11E is a bar graph depicting the percentage of COX-2-positive chondrocytes in each of the conditions (mean of 5 slides counted per condition).
Method: 5-micron sections were processed for immunohistochemical detection of cyclooxygenase COX-2 as described above.

bradykinin receptor B2, sequence (P30411 whole entry): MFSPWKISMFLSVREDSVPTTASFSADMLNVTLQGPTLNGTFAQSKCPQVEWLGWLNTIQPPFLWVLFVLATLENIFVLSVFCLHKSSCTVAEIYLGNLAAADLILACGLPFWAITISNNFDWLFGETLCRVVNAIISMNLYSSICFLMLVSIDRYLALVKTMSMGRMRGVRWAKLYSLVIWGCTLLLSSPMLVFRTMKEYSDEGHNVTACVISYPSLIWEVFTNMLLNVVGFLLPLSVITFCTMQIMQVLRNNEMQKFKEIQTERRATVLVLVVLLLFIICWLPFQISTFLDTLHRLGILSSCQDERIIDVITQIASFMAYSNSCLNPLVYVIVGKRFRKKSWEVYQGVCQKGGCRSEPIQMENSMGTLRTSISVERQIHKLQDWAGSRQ

SMILES | analgesia in knee OA (bradykinin receptor B2) | anti-inflammatory effect in knee OA (bradykinin receptor B2) | Mean T2 value [1] [ms] | Mean radiological score [2] | radiological indices of disease progression (DX) versus saline-treated controls [2] | Mean OARSI score [3] | COX-2 staining on articular cartilage (COX-2)
NC(N)=NCCC[C@@H](N)C(=O)N[C@@H](CCCN=C(N)N)C(=O)N1CCC[C@H]1C(=O)N1C[C@H](O)C[C@H]1C(=O)NCC(=O)N[C@@H](Cc1cccs1)C(=O)N[C@@H](CO)C(=O)N1Cc2ccccc2C[C@@H]1C(=O)N1[C@H](C(=O)N[C@@H](CCCN=C(N)N)C(=O)O)C[C@@H]2CCCC[C@@H]21 [Icatibant] | provided local analgesia | no anti-inflammatory effect could be detected | – | – | – | – | –
C=C(N)NCC[C@@H](CC(=O)[C@@H](CCCC)CC(C)=O)C(=O)N1[C@H]2CCCC[C@@]2(C)C[C@H]1C(=O)N1CCC[C@@H]1C(=O)CCC(=O)NC(C)(Cc1ccccc1)C(=O)NC(CO)C(=O)C[C@H](Cc1cccc2ccccc12)C(=C)CC(C(=O)O)[C@H](C)CC (some centres unmarked) [R-954] | – | – | 64.38 | 2.50 | significantly ameliorated radiological indices of disease progression | 4.25 | –
CC(C)C[C@@H]1NC(=O)[C@@H](C(C)C)NC(=O)[C@@H]2CCCN2C(=O)[C@@H](CC(=O)O)NC(=O)[C@@H](Cc2c[nH]c3ccccc23)NC1=O [BQ-123] (cyclo(L[dW][dD]P[dV])) | – | – | 61.13 | 2.83 | significantly ameliorated radiological indices of disease progression | 10.25 | diminished
